The subject of one experiment is DB00118. Briefly: Antibiotic MIC tests. Type of experiment: cell-based, Janthinobacterium lividum. Particulars: Janthinobacterium lividum; strain DB00118; read-out: MIC. Here is the method: (§1) The antibiotic resistance profile and MICs tests were performed using Janthinobacterium lividum grown from cultures purified and grown in vegitone LB broth.
A further experiment concerns DB00121. Briefly: Antibiotic MIC tests. Type of experiment: cell-based, Janthinobacterium lividum. The conditions noted are these: Janthinobacterium lividum; strain DB00121; read-out: MIC. The method, then: as §1
The subject of a further experiment is DB02378. As to the kind of experiment: Antibiotic MIC tests. Type of experiment: cell-based, Janthinobacterium lividum. The conditions noted are these: Janthinobacterium lividum; strain DB02378; read-out: MIC. The method, then: as §1
Another experiment concerns DB02473. As to the kind of experiment: Antibiotic MIC tests. Particulars: Janthinobacterium lividum; strain DB02473; read-out: MIC. Type of experiment: cell-based, Janthinobacterium lividum. The method, then:
as §1

The test system of experiment [1] is E. Coli ATCC25922. Briefly: Antibiotic MIC tests. Type of experiment: cell-based. The conditions noted are these: Escherichia coli.
Experiment [2] has as its system E. Coli ATCC25922. Particulars: cited from earlier work.
In experiment [3] the test system is Janthinobacterium lividum strains. Briefly: Internal antibiotic resistance tests (BD BBL Sensi-Disc, zone of inhibition). Type of experiment: cell-based. Particulars: all 5 strains; disc content per antibiotic (e.g. penicillin 10 IU); FIG. 5. Here is the method: One Janthinobacterium lividum colony of 3-day old grown in 50% BHI agar was mixed well in 1 ml of 1×PBS buffer, diluted 10× and 100×, respectively. 200 μl of diluted Janthinobacterium lividum cells were evenly plated onto R2A/BHI agar plates in triplicate in 150 mm petri dishes. Antibiotic discs (BD BBL Sensi-Disc antimicrobial susceptibility test discs) were dispensed using a Disc dispenser (BD BBL Sensi-Disc Designer Dispenser System, 12-Place). Plates were incubated for 2-3 days at room temperature and imaged at the end of incubation.
The sensitivity of Janthinobacterium lividum to antibiotics is reflected by a clear zone of inhibition of Janthinobacterium lividum cells surrounding the antibiotic discs. The zone of inhibition was measured using ImageJ and was transformed into cm for analysis.

The test system is the same in experiment [4]. Briefly: Antibiotic MIC tests, resistance profile in words. Type of experiment: cell-based. The conditions noted are these: Table 7 and 8. Here is the method:
as §1

Converted amounts (≈) assume the structure as drawn. Bounds are passed on as bounds.

In general, MIC refers to the least concentration at which growth counts as inhibited.

With `NCC[C@H](O)C(=O)N[C@@H]1C[C@H](N)[C@@H](O[C@H]2O[C@H](CN)[C@@H](O)[C@H](O)[C@H]2O)[C@H](O)[C@H]1O[C@H]1O[C@H](CO)[C@@H](O)[C@H](N)[C@H]1O` [Amikacin], the MIC with DB00118 was found to be 2 µg/mL (≈ 3.42 µM); in the experiment on DB00121, 1 µg/mL (≈ 1.71 µM); with DB02378, 2 µg/mL (≈ 3.42 µM); in the experiment on DB02473 it was 2 µg/mL (≈ 3.42 µM); in the experiment on E. Coli ATCC25922 [1] it was 2 µg/mL (≈ 3.42 µM). For the same molecule, the “MIC, CLSI QC ranges” value in the experiment on E. Coli ATCC25922 [2] is 0.5 to 4 µg/mL.

For `O=C(N[C@H](CO)[C@H](O)c1ccc([N+](=O)[O-])cc1)C(Cl)Cl` [Chloramphenicol], in experiment [3], the “sensitivity of Janthinobacterium lividum to antibiotic discs” value was “sensitive”. The “sensitivity of Janthinobacterium lividum strains to antibiotics” value in experiment [4] is listed as “less sensitive”. The MIC is 2 µg/mL (≈ 6.19 µM) with DB00118; 2 µg/mL (≈ 6.19 µM) with DB00121; 2 µg/mL (≈ 6.19 µM) in the experiment with DB02378; 2 µg/mL (≈ 6.19 µM) in the experiment on DB02473; 4 µg/mL (≈ 12.4 µM) in the experiment on E. Coli ATCC25922 [1]. Also, the “MIC, CLSI QC ranges” value with E. Coli ATCC25922 [2] was 2 to 8 µg/mL.

Consider `C[C@@H](O)[C@H]1C(=O)N2C(C(=O)O)=C(S[C@@H]3CN[C@H](C(=O)N(C)C)C3)[C@H](C)[C@H]12` [Meropenem], for which, in experiment [4], the “sensitivity of Janthinobacterium lividum strains to antibiotics” value is on record as “less sensitive”. Also, the MIC was 2 µg/mL (≈ 5.22 µM) in the experiment on DB00118; 8 µg/mL (≈ 20.9 µM) with DB00121; 2 µg/mL (≈ 5.22 µM) with DB02378; 2 µg/mL (≈ 5.22 µM) in the experiment with DB02473; less than 0.063 µg/mL against E. Coli ATCC25922 [1].

(Values after patent publication US12064459B2, “Compositions and methods for improving skin health and for the treatment and prevention of diseases, disorders and conditions associated with pathogenic microbes” (priority 2019, dated 2024).)
